Here are results for 3 compounds from patent US10172357B2, “Fungicidal composition and method for controlling plant diseases” (ISHIHARA SANGYO KAISHA, LTD., priority 2015, dated 2019).

Molecules are shown by their SMILES.

The test system of this assay is Blumeria graminis. In words: Test on preventive effect against wheat powdery mildew (seed treatment). It is filed as in vivo, Blumeria graminis on wheat (cultivar: Norin-61-go). The settings on record: seed coating, first leaf, 7 days after inoculation; for Lesion area ratio (%): non-treated plot 90. The text has this:
50 g of wheat seeds (cultivar: Norin-61-go), and predetermined amounts of an aqueous suspension containing pyriofenone 30% (WN) (tradename: PROPERTY FLOWABLE), an aqueous suspension containing fluazinam 50% (WN) (tradename: FROWNCIDE SC) and an aqueous suspension containing thiophanate-methyl 75% (WM) (tradename: TOPSIN M sol) so that the respective active ingredient amounts were as identified in Table 1 (g.a.i./100 kg seed), were put in a plastic bag, sufficiently stirred and air-dried to obtain seeds coated with a fungicidal composition. Ten seeds coated with a fungicidal composition were sown in a plastic pot (diameter: 7.5 cm, height: 6.8 cm, cylindrical black plastic pot, soil: culture soil). Wheat plants were cultivated in a greenhouse and at the 1-leaf stage, conidia of Blumeria graminis were dusted and inoculated, and the wheat plants were maintained in a constant temperature chamber at 20° C. The same operation was conducted with respect to seeds coated with the respective active ingredients individually, for comparison, as shown in Table 1. 7 days after the inoculation, the lesion area ratio on the first leaf was examined, and the control value was calculated based on the following formula. Further, theoretical values (control values) by use in combination were also calculated in accordance with the following Colby's formula. Control value=(1−a/b)×100 • a: lesion area ratio in treated plot • b: lesion area ratio in non-treated plot Colby's formula=(X+Y+Z)−(XY+YZ+ZX)/100+XYZ/10,000 • X: control value of component (a) used singly • Y: control value of component (b) used singly • Z: control value of component (c) used singly

Setting [1] is: fluazinam 3.3 g.a.i./100 kg seed.
The mark [2] stands for this setting: fluazinam 10 g.a.i./100 kg seed.
[3] abbreviates: pyriofenone 30 g.a.i./100 kg seed.
Where [4] appears, read: thiophanate-methyl 23.3 g.a.i./100 kg seed.
[5] abbreviates: thiophanate-methyl 35 g.a.i./100 kg seed.
[6] abbreviates: thiophanate-methyl 70 g.a.i./100 kg seed.

`O=[N+]([O-])c1cc(C(F)(F)F)c(Cl)c([N+](=O)[O-])c1Nc1ncc(C(F)(F)F)cc1Cl` [Fluazinam, N-(3-chloro-5-trifluoromethyl-2-pyridyl)-2,6-dinitro-3-chloro-4-trifluoromethylaniline]: the Control value is, setting by setting: under setting [1], 0; (fluazinam 5 g.a.i./100 kg seed) 0; under setting [2], 0. Further, the “Lesion area ratio (%)” value was 90% under setting [1], 90% (fluazinam 5 g.a.i./100 kg seed) and 90% under setting [2].
For `COc1cc(C)c(C(=O)c2c(OC)ncc(Cl)c2C)c(OC)c1OC` [Pyriofenone, 3-(2,3,4-trimethoxy-6-methylbenzoyl)-5-chloro-2-methoxy-4-methylpyridine], under setting [3], the Control value is reported as 44 and the “Lesion area ratio (%)” value is given as 50%.
Take `COC(=O)NC(=S)Nc1ccccc1NC(=S)NC(=O)OC` [Thiophanate-methyl, 1,2-di-(3-methoxycarbonyl-2-thioureido)benzene]: the Control value was determined as 0 under setting [4], 33 under setting [5] and 44 under setting [6]. In addition, the “Lesion area ratio (%)” value reads like this: under setting [4], 90%; under setting [5], 60%; under setting [6], 50%.
